This is an account of results in patent US10112937B2, “P2X7 modulators and methods of use” (Janssen Pharmaceutica NV, priority 2013, dated 2018).

Each structure is given as a SMILES string.

In assay [1] the target is T1, human P2X7 (Homo sapiens (Human), UniProt Q99572). In words: P2X7 antagonism in human whole blood (IL-1β release after LPS + Bz-ATP, ELISA). Format: cell-based. The settings on record: LPS 30 ng/ml + 1 mM Bz-ATP. (In general: In an ELISA, binding on a coated surface is turned into a signal by an enzyme label.)
Experimental: P2X7 Antagonism in Human Peripheral Blood Mononuclear Cells (PBMCs) and Human Whole Blood.
Human blood was collected using a blood donor program. PBMCs were isolated from blood using a Ficoll density gradient technique. Briefly, blood was laid on Ficoll solution and centrifuged at RT for 20 minutes at 2000 rpm. The buffy layer (between red blood cells and plasma) was carefully collected by aspiration, washed with PBS and centrifuged again at 1500 rpm for 15 minutes. The resulting cell pellet was washed and plated on 96 well-plates for experiments. For the Human Whole Blood experiments, 150 μl of human blood was platted on 96 well-plates. Lipopolysaccharide (LPS) (30 ng/ml) was added to each well and incubated for 1 hour. Test compounds were then added and incubated for 30 minutes. The P2X7 agonist, 2′(3′)-O-(4-benzoylbenzoyl) adenosine 5′ triphosphate (Bz-ATP) was then added at a final concentration of 0.5 mM (PBMC) or 1 mM (blood). Cells were incubated for an additional 1.5 hours. At that point, supernatant was collected and stored for IL-1β assay using manufacturer's protocol for enzyme-linked immunosorbent assay (ELISA). Data was expressed as percent control, where control is defined as the difference in IL-1β release in LPS+Bz-ATP samples and LPS only samples. […] Data are analyzed and graphed on Graphpad Prism 5. […]
The target in assay [2] is T1, human P2X7. In words: P2X7 antagonism in human PBMCs (IL-1β release after LPS + Bz-ATP, ELISA). Format: cell-based.
For assay [3], the target named is T2, rat P2X7 (Rattus norvegicus (Rat), UniProt Q64663). In words: Ca2+ flux (FLIPR) in 1321N1 cells expressing recombinant rat P2X7.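 Further: Calcium-4 dye fluorescence change read 180 s after agonist addition, with cells preincubated 30 min with compound and dye in 96-well plates.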 Format: cell-based. On the technique in general: Calcium flux is commonly read through the fluorescence of an indicator in the cells.
In assay [4] the target is T1, human P2X7. In words: Ca2+ flux (FLIPR) in 1321N1 cells expressing recombinant human P2X7.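 Further: cells loaded with Calcium-4 dye, preincubated with test compound for 30 min, fluorescence change read 180 s after agonist addition.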 In kind it is cell-based.
Assay [5] addresses T2, rat P2X7. The experiment in a line: Radioligand binding ([3H]A-804598), rat P2X7-1321N1 cell membranes. The settings on record: rat P2X7-1321N1 membranes, tritiated A-804598.
Experimental: (§1) human or rat P2X7-1321N1 cells were collected and frozen @−80° C. On the day of the experiment, cell membrane preparations were made according to standard published methods. […] The assay was terminated by filtration (GF/B filters pre-soaked with 0.3% PEI) and washed with washing buffer (Tris-HCl 50 mM). The IC50 generated in the binding assay was corrected for tracer concentration and affinity of the tracer to derive at the affinity (Ki) of the test compounds. […] For analysis, each concentration point is averaged from triplicate values and the averaged values are plotted on Graphpad Prism.
The target in assay [6] is T1, human P2X7. In words: Radioligand binding ([3H]A-804598), human P2X7-1321N1 cell membranes.
Experimental: as §1
Where [7] appears, read: human PBMCs, test compound 10 μM.
Setting [8] is: 1321N1 cells, recombinant rat P2X7, 250 μM BzATP.
Setting [9] is: 1321N1 cells, recombinant human P2X7, 250 μM BzATP.
Setting [10] is: human P2X7-1321N1 membranes, tritiated A-804598.
The mark [11] stands for this setting: [3H]A-804598, human P2X7-1321N1 membranes.
[12] abbreviates: Ca2+ flux, 250 μM BzATP, rat P2X7 1321N1 cells.
Setting [13] is: 10 μM test compound, human PBMCs, LPS + Bz-ATP.
Setting [14] is: Ca2+ flux, 250 μM BzATP, human P2X7 1321N1 cells.

T2 sequence (Q64663 whole entry): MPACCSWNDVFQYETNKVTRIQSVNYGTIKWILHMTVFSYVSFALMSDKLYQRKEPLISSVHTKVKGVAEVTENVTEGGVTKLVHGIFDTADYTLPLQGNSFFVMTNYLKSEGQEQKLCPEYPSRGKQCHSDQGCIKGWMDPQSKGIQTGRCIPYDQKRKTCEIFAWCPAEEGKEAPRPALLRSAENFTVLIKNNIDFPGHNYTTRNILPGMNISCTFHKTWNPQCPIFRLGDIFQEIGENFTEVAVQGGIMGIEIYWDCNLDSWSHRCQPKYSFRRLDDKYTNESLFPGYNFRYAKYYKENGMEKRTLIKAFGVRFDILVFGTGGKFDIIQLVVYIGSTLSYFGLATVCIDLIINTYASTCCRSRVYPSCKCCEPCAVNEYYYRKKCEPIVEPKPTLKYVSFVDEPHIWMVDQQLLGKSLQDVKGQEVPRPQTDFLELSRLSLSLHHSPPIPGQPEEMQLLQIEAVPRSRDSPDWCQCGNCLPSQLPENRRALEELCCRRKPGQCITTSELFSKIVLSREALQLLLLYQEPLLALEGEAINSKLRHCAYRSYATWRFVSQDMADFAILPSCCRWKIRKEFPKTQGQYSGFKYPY
T1 sequence (Q99572 whole entry): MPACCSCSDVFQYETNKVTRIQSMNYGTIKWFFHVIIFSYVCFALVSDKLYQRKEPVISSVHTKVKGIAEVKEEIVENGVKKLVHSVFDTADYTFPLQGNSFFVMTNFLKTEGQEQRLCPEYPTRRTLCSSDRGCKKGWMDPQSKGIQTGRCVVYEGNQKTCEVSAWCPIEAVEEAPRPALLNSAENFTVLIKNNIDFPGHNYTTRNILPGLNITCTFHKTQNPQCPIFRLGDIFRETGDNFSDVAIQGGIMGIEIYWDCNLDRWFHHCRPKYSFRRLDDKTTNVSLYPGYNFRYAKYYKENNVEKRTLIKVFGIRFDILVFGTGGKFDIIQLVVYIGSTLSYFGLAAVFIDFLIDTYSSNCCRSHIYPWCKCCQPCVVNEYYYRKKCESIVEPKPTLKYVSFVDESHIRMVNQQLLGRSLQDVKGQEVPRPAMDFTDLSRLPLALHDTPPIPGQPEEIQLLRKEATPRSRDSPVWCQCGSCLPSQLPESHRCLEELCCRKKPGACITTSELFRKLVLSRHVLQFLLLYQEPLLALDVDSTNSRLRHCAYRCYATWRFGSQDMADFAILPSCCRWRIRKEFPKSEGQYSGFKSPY

For the compound `Cc1ccnc(-n2nnc3c2CCN(C(=O)c2cccc(C(F)(F)F)c2Cl)[C@@H]3C)n1` (single isomer, unassigned) [Example 235, (4R*)-(2-Chloro-3-(trifluoromethyl)phenyl)(4-methyl-1-(4-methylpyrimidin-2-yl)-6,7-dihydro-1H-[1,2,3]triazolo[4,5-c]pyridin-5(4H)-yl)methanone], in assay [1], the IC50 was 17 nM. Besides, the “PBMC 10 μM (% control)” value in assay [2] (setting [7]) was −3.7 % control.
As for `C[C@@H]1c2nnn(-c3ncccn3)c2CCN1C(=O)c1cccc(C(F)(F)F)c1F` (single isomer, unassigned) [Example 271, (R*)-(2-fluoro-3-(trifluoromethyl)phenyl)(4-methyl-1-(pyrimidin-2-yl)-6,7-dihydro-1H-[1,2,3]triazolo[4,5-c]pyridin-5(4H)-yl)methanone], the IC50 in assay [3] (setting [8]) was found to be 20 nM; in assay [4] (setting [9]) it was 1.7 nM. In addition, the “PBMC 10 μM (% control)” value is 14.3 % control in assay [2] (setting [7]) and −3.7 % control in assay [2] (test compound 10 μM, LPS 30 ng/ml + 0.5 mM Bz-ATP). In addition, affinity in assay [5] was put at a Ki of 1.6 nM.
For the compound `Cc1cc(-n2nnc3c2CCN(C(=O)c2ccnc(C(F)(F)F)c2Cl)[C@@H]3C)ncc1F` (single isomer, unassigned) [Example 371, (R*)-(3-chloro-2-(trifluoromethyl)pyridin-4-yl)(1-(5-fluoro-4-methylpyridin-2-yl)-4-methyl-6,7-dihydro-1H-[1,2,3]triazolo[4,5-c]pyridin-5(4H)-yl)methanone], the figures for the Ki in assay [6] (setting [10]) and in assay [5] were 17.6 nM and 47.3 nM, respectively. Also, the IC50 in assay [3] (setting [8]) is 42.5 nM; in assay [4] (setting [9]), 4.3 nM. For the same compound, in assay [2] (setting [7]), the “PBMC 10 μM (% control)” value was −2.3 % control.
Compound `CC1c2nnn(-c3cccc(C(F)(F)F)n3)c2CCN1C(=O)c1cccc(C(F)(F)F)c1Cl` (stereo not drawn) [Example 378, (2-chloro-3-(trifluoromethyl)phenyl)(4-methyl-1-(6-(trifluoromethyl)pyridin-2-yl)-6,7-dihydro-1H-[1,2,3]triazolo[4,5-c]pyridin-5(4H)-yl)methanone] displayed a Ki in assay [6] (setting [10]) of 158 nM. The IC50 in assay [3] (setting [8]) was 137 nM; in assay [4] (setting [9]), 78.9 nM. Moreover, the “PBMC 10 μM (% control)” value in assay [2] (setting [7]) was −0.1 % control.
Taken in the same sequence, the figures for `CC1c2nnn(-c3ncc[nH]3)c2CCN1C(=O)c1cccc(C(F)(F)F)c1Cl` (stereo not drawn) [Example 393, (1-(1H-imidazol-2-yl)-4-methyl-6,7-dihydro-1H-[1,2,3]triazolo[4,5-c]pyridin-5(4H)-yl)(2-chloro-3-(trifluoromethyl)phenyl)methanone] were 89.1 nM, 11100 nM, 51.2 nM and 8.5 % control.
Turning to `CC1c2n[nH]c(-c3ccc(F)cn3)c2CCN1C(=O)c1cccc(C(F)(F)F)c1Cl` (stereo not drawn) [Example 430, (2-chloro-3-(trifluoromethyl)phenyl)(3-(5-fluoropyridin-2-yl)-7-methyl-4,5-dihydro-2H-pyrazolo[3,4-c]pyridin-6(7H)-yl)methanone], in assay [6] (setting [11]), the affinity, expressed as Ki, was 36.3 nM. Moreover, the IC50 in assay [3] (setting [12]) was 158 nM; in assay [4] (setting [14]) it was 70.8 nM. Also, in assay [2] (setting [13]), the “PBMC 10 μM (% control)” value is on record as −4.0 % control.
For `CC1c2n[nH]c(-c3ncccn3)c2CCN1C(=O)c1cccc(Cl)c1Cl` (stereo not drawn) [Example 431, (2,3-dichlorophenyl)(7-methyl-3-(pyrimidin-2-yl)-4,5-dihydro-2H-pyrazolo[3,4-c]pyridin-6(7H)-yl)methanone] the same measures were 12.3 nM, 320 nM, 6 nM and −6.4 % control.
For `CC1c2n[nH]c(-c3ccc(F)cc3)c2CCN1C(=O)c1cccc(C(F)(F)F)c1Cl` (stereo not drawn) [Example 434, (2-chloro-3-(trifluoromethyl)phenyl)(3-(4-fluorophenyl)-7-methyl-4,5-dihydro-2H-pyrazolo[3,4-c]pyridin-6(7H)-yl)methanone] the same measures were 47.9 nM, 432 nM, 43.5 nM and 3.1 % control.
Taken in the same sequence, the figures for `CC1c2n[nH]c(-c3ccnn3C)c2CCN1C(=O)c1cccc(C(F)(F)F)c1Cl` (stereo not drawn) [Example 437, (2-chloro-3-(trifluoromethyl)phenyl)(7-methyl-3-(1-methyl-1H-pyrazol-5-yl)-4,5-dihydro-2H-pyrazolo[3,4-c]pyridin-6(7H)-yl)methanone] were 144 nM, 14600 nM, 240 nM and −11.7 % control.

The IC50 is the concentration that inhibits the measured activity by half. Broadly, the Ki is the dissociation constant of the complex between target and ligand, obtained from inhibition or displacement. Low values mean higher affinity, high ones lower affinity.
